What was measured:
[1] = tested on: CD4 on peripheral blood cell; experiment: Effects on the expression of CD4 on peripheral blood cell in mice (flow cytometry); type: in vivo, mice (C57 BL/6); details: intragastric, once a day for four days, mouse peripheral blood
Procedure: (§1) FITC Rat Anti-Mouse CD8a: BD, Cat. #553030.
(§2) PE Rat Anti-Mouse CD4: BD, Cat. #557308.
(§3) APC Rat Anti-Mouse CD19: BD, Cat. #561738.
(§4) The compounds used in the test were prepared by the chemical department of Beijing Forelandpharma Co. Ltd.
(§5) Routs of administration: intragastric administration, once a day, and continuous administration for four days.
(§6) After the administration, supraorbital venous blood was collected from the mouse, added to an EP tube (1.5 ml) containing an anticoagulant, and kept on the ice. The resulting mixture was transferred to a test tube, centrifuged at 4° C. and 1200 rpm/min for 5 min, removed with the supernatant liquid, added with a lysate, processed with cell lysis on the ice for 5 min, then pre-dyed, added with diluted antibody, and incubated away from light for 30 min. After the incubation, the resulting mixture was washed, removed with the supernatant liquid, added with stationary liquid, and kept in a refrigerator at 4° C. away from light for the test of flow cytometry.

[2] = tested on: CD8 on peripheral blood cell; experiment: Effects on the expression of CD8 on peripheral blood cell in mice (flow cytometry); type: in vivo, mice (C57 BL/6); details: intragastric, once a day for four days, mouse peripheral blood
Procedure: as §1, §2, §3, §4, §5, §6

[3] = tested on: CD19 on peripheral blood cell; experiment: Effects on the expression of CD19 on peripheral blood cell in mice (flow cytometry); type: in vivo, mice (C57 BL/6); details: intragastric, once a day for four days, mouse peripheral blood
Procedure: as §1, §2, §3, §4, §5, §6

S1P3 = S1P3 (Homo sapiens (Human), UniProt Q99500); experiment: PathHunter β-arrestin test S1P3; type: cell-based; details: PathHunter β-arrestin engineering cells
Procedure: (§7) 1. PathHunter β-arrestin testing system was used to detect the biological activity of the compounds.
(§8) 2. β-arrestin engineering cells were cultured on […] culture plates and placed in an incubator at 37° C.
(§9) 3. The sample to be tested was diluted with reaction solution in 5-fold dilution.
(§10) 4. The diluted sample to be tested was added to the engineering cells and the reaction was induced and observed.
(§11) 5. The chemiluminescence signal produced in the test may be detected by multifunctional enzyme marker (PerkinElmer Envision™).
(§12) Test Analysis and Results
(§13) 6. The data obtained was analyzed using the data analysis software of CBIS (ChemInnovation, CA) to achieve EC50, and the test results are shown in Table 2.

hERG potassium channel = hERG potassium channel (Homo sapiens (Human), UniProt Q12809); experiment: hERG patch clamp test in HEK293 engineering cells; type: cell-based; details: HEK293 cells stably expressing hERG potassium channel
Procedure: 1. HEK293 engineering cells stably expressed with hERG potassium channel were used to test the compounds.
The cells were separated by TrypLE™ Express before the test. 3×10^3 of cells were spread on a cover plate, cultured in 24-well plate and tested 18 hours later. The signals produced by voltage stimulation of potassium currents in cells were recorded by electrophysiological techniques.
Data Analysis and Results
First of all, currents after the action of drug of each concentration and blank control were standardized separately
[formula] and then the corresponding inhibition ratio of each concentration was calculated
[formula] The average and the standard error were calculated for each concentration, and 50% inhibiting concentration of each compound was calculated according to the following equation: […]
The dose-dependent effect was obtained through nonlinear fitting with the equation above. C refers to drug concentration, IC50 refers to 50% inhibiting concentration and h refers to hill coefficient. The curve fitting and the calculation of IC50 were processed by IGOR software.

S1P1 = S1P1 (Homo sapiens (Human), UniProt P21453); experiment: PathHunter β-arrestin test S1P1; type: cell-based; details: PathHunter β-arrestin engineering cells
Procedure: as §7, §8, §9, §10, §11, §12, §13

S1P4 = S1P4 (Homo sapiens (Human), UniProt O95977); experiment: PathHunter β-arrestin test S1P4; type: cell-based; details: PathHunter β-arrestin engineering cells
Procedure: as §7, §8, §9, §10, §11, §12, §13

S1P5 = S1P5 (Homo sapiens (Human), UniProt Q9H228); experiment: Fluorescence detection FLIPR assay, activation of GPCR (S1P5); type: cell-based; details: total detection time 180 s, read-out: FLIPR Test EC50 S1P5
Procedure: The sample to be tested was dissolved in DMSO and diluted with detection buffer solution in 3-fold dilution. A reagent and a positive control were diluted in the same way.
The reactions of the agonist, the reagent and the positive control were detected by a device of […] with a total detection time of 180 s to estimate the ability to activate GPCR (S1P5) of each compound.

S1P2 = S1P2 (Homo sapiens (Human), UniProt O95136); experiment: PathHunter β-arrestin test S1P2; type: cell-based; details: PathHunter β-arrestin engineering cells
Procedure: as §7, §8, §9, §10, §11, §12, §13

[4] = Stability observation on the isolated solid; type: physicochemical; details: white solid; stored at low temperature under the protection of nitrogen
Procedure: 0.426 g (0.727 mmol) of intermediate 80 was dissolved in 16 ml of methanol, added with 0.01 ml of concentrated hydrochloric acid, purged with nitrogen to remove air, followed by the addition of 0.09 g of palladium 10% on carbon, purged with hydrogen, and reacted overnight at 95° C. The reaction was monitored by TLC (DCM:MeOH=10:1). After the reaction was completed, the resulting mixture was filtered, and the filter cake was washed with hot methanol. The filtrate was concentrated by rotary evaporation, added with 1% sodium hydrate solution to adjust pH to 9-10. […] Yield: 8.5%. LC-MS: 406 [M+1]^+, tR=1.328 min. A corresponding hydrogenchloride salt was obtained by mixing the solid with a solution of hydrogen chloride in methanol under stirring.

S1P3, sequence (Q99500 whole entry, species assumed): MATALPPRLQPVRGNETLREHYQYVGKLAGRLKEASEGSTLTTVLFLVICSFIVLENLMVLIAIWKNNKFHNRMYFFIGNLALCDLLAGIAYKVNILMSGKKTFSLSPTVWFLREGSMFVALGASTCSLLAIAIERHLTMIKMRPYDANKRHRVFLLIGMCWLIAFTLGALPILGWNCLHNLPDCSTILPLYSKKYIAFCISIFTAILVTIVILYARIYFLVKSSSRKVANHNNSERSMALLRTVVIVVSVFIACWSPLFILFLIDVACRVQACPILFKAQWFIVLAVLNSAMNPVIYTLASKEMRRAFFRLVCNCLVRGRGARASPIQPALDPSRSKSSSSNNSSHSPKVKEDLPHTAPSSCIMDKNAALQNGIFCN
S1P4, sequence (O95977 whole entry, species assumed): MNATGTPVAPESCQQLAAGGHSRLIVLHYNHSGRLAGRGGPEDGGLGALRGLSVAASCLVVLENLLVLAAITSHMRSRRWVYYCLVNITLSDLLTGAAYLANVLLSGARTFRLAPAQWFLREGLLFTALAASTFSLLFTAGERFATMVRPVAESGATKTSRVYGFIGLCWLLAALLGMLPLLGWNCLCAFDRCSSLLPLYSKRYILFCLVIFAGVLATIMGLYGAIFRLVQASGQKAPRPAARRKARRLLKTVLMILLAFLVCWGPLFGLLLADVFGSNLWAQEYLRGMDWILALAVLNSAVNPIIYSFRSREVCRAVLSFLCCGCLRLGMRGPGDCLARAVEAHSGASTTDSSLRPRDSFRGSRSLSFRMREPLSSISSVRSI
S1P1, sequence (P21453 whole entry, species assumed): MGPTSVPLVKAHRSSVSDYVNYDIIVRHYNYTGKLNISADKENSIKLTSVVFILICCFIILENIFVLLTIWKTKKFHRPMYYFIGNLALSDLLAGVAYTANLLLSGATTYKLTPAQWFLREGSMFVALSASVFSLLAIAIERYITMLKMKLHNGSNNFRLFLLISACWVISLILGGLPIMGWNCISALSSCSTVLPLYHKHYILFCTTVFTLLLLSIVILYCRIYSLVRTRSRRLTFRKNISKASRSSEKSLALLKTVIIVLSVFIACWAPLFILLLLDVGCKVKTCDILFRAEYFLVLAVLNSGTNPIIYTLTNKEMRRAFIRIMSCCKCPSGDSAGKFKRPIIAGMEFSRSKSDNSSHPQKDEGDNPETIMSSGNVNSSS
hERG potassium channel, sequence (Q12809 whole entry): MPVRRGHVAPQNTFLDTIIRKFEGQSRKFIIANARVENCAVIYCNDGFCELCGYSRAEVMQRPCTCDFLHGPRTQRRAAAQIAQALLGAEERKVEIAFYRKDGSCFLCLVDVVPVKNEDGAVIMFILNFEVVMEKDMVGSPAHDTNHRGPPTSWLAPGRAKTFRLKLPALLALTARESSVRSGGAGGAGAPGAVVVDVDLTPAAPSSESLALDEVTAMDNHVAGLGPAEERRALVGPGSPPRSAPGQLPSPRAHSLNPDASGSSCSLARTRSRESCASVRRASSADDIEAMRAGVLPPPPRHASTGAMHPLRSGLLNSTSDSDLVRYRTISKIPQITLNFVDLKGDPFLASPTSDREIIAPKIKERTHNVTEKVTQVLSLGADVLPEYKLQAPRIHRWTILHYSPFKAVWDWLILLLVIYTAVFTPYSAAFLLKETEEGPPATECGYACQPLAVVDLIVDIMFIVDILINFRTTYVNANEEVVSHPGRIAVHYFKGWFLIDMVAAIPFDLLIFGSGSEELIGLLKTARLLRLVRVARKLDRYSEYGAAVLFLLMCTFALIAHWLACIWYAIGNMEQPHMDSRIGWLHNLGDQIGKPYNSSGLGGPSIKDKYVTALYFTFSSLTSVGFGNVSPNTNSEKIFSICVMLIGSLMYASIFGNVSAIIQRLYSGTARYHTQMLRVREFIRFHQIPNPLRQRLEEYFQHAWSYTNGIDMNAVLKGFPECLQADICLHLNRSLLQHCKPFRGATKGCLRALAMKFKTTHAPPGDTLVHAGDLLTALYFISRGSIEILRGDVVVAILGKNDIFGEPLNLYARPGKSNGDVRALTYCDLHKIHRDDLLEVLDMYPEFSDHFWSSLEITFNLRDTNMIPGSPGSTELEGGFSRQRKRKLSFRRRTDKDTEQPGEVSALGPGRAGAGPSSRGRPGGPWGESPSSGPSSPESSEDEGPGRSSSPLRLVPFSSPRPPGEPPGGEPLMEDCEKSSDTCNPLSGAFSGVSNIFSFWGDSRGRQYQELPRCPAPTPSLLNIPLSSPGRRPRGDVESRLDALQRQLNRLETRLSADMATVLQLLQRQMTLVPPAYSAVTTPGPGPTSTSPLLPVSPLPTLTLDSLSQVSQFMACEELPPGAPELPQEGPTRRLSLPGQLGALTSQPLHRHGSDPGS
S1P2, sequence (O95136 whole entry, species assumed): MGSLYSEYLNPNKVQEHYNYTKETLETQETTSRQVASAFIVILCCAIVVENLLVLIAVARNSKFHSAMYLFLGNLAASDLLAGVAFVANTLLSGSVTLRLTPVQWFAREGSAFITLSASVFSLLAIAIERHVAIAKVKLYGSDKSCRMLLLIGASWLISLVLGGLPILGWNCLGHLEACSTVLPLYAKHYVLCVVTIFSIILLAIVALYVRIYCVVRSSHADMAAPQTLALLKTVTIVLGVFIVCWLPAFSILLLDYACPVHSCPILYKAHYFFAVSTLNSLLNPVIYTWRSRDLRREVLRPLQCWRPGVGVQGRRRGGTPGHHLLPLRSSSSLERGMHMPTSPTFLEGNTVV
S1P5, sequence (Q9H228 whole entry, species assumed): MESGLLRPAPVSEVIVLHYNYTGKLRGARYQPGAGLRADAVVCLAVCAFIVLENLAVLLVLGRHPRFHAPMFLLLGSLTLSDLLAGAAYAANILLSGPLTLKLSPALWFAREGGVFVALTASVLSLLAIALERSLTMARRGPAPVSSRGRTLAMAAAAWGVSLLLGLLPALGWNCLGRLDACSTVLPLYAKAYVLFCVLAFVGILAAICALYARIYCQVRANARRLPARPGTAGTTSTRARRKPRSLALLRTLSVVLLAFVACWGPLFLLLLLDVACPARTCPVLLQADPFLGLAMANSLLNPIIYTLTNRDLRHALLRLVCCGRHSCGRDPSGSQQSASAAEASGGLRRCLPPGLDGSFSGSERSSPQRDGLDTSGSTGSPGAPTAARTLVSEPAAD

SMILES	CD4 (%) ([1]; 1 mg/kg)	CD4 (%) ([1]; 5 mg/kg)	CD8 (%) ([2]; 1 mg/kg)	CD8 (%) ([2]; 5 mg/kg)	CD19 (%) ([3]; 1 mg/kg)	CD19 (%) ([3]; 5 mg/kg)	EC50 (S1P3) [nM]	IC50 (hERG potassium channel) [nM]	EC50 (S1P1) [nM]	EC50 (S1P4) [nM]	EC50 (S1P5) [nM]	EC50 (S1P2) [nM]	stability of the solid [4]
CC(C)Oc1ccc(-c2nnc(-c3ccc4c(c3)C[C@](N)(CO)CC4)o2)cc1F [Example 1, (S)-(2-amino-7-(5-(3-fluoro-4-isopropoxyphenyl)-1,3,4-oxadiazol-2-yl)-1,2,3,4-tetrahydronaphthalen-2-yl)methanol]	10.9	1.2	10.0	1.8	39.0	17.5							
N[C@@]1(CO)CCc2ccc(-c3nnc(-c4ccc5c(c4)OCO5)o3)cc2C1 [Example 2]	23.1	16.4	13.0	8.6	44.8	35.2							
CC(C)Oc1ccc(-c2nnc(-c3ccc4c(c3)C[C@](N)(CO)CC4)o2)cc1C#N [Example 3, (S)-5-(5-(7-amino-7-(hydroxymethyl)-5,6,7,8-tetrahydronaphthalen-2-yl)-1,3,4-oxadiazol-2-yl)-2-isopropoxybenzonitrile]	22.1	7.2	11.9	6.1	39.3	24.7	2110	7800	4.56	> 100000	250	> 100000	
CC(C)Oc1ccc(-c2nnc(-c3ccc4c(c3)C[C@](N)(CO)CC4)o2)cc1C(N)=O [Example 4, (S)-5-(5-(7-amino-7-(hydroxymethyl)-5,6,7,8-tetrahydronaphthalen-2-yl)-1,3,4-oxadiazol-2-yl)-2-isopropoxybenzamide]	27.1	27.0	14.5	12.3	47.1	43.6							
N#Cc1cc(-c2nnc(-c3ccc4c(c3)C[C@](N)(CO)CC4)o2)ccc1O [Example 5, (S)-5-(5-(7-amino-7-(hydroxymethyl)-5,6,7,8-tetrahydronaphthalen-2-yl)-1,3,4-oxadiazol-2-yl)-2-hydroxybenzonitrile]	31.5	27.1	16.8	14.7	44.3	43.8							
COc1ccc(-c2nnc(-c3ccc4c(c3)C[C@](N)(CO)CC4)o2)cc1C(F)(F)F [Example 6, (S)-(2-amino-7-(5-(4-methoxy-3-(trifluoromethyl)phenyl)-1,3,4-oxadiazol-2-yl)-1,2,3,4-tetrahydronaphthalen-2-yl)methanol]	17.8	8.7	17.0	5.7	34.0	29.1							
N[C@@]1(CO)CCc2ccc(-c3nnc(-c4ccc(F)c(F)c4)o3)cc2C1 [Example 7, (S)-(2-amino-7-(5-(3,4-difluorophenyl)-1,3,4-oxadiazol-2-yl)-1,2,3,4-tetrahydronaphthalen-2-yl)methanol]	26.5	13.4	14.5	9.2	45.2	40.6							
COc1ccc(-c2nnc(-c3ccc4c(c3)C[C@](N)(CO)CC4)o2)cc1F [Example 8, (S)-(2-amino-7-(5-(3-fluoro-4-methoxyphenyl)-1,3,4-oxadiazol-2-yl)-1,2,3,4-tetrahydronaphthalen-2-yl)methanol]	33.4	30.0	16.6	16.0	36.8	41.7							
CC(=O)Nc1ccc(-c2nnc(-c3ccc4c(c3)C[C@](N)(CO)CC4)o2)cc1 [Example 9, (S)—N-(4-(5-(7-amino-7-(hydroxymethyl)-5,6,7,8-tetrahydronaphthalen-2-yl)-1,3,4-oxadiazol-2-yl)phenyl)acetamide]	33.1	31.9	17.3	17.0	42.5	44.3							
N[C@@]1(CO)CCc2ccc(-c3nnc(-c4ccc(O)c(C(F)(F)F)c4)o3)cc2C1 [Example 10, (S)-4-(5-(7-amino-7-(hydroxymethyl)-5,6,7,8-tetrahydronaphthalen-2-yl)-1,3,4-oxadiazol-2-yl)-2-(trifluoromethyl)phenol]	31.1	27.7	15.3	14.0	44.3	35.7							prone to oxidative degradation
N[C@@]1(CO)CCc2ccc(-c3nnc(-c4ccc(C(F)(F)F)c(F)c4)o3)cc2C1 [Example 11, (S)-(2-amino-7-(5-(3-fluoro-4-(trifluoromethyl)phenyl)-1,3,4-oxadiazol-2-yl)-1,2,3,4-tetrahydronaphthalen-2-yl)methanol]	23.5	20.5	14.9	13.8	52.1	54.0							
N[C@@]1(CO)CCc2ccc(-c3nnc(-c4cc(C(F)(F)F)cc(C(F)(F)F)c4)o3)cc2C1 [Example 12, (S)-(2-amino-7-(5-(3,5-bis(trifluoromethyl)phenyl)-1,3,4-oxadiazol-2-yl)-1,2,3,4-tetrahydronaphthalen-2-yl)methanol]	15.2	2.8	9.6	3.4	53.2	38.1							
CCOc1ccc(-c2nnc(-c3ccc4c(c3)C[C@](N)(CO)CC4)o2)cc1OCC [Example 13, (S)-(2-amino-7-(5-(3,4-diethoxyphenyl)-1,3,4-oxadiazol-2-yl)-1,2,3,4-tetrahydronaphthalen-2-yl)methanol]	23.4	11.6	12.7	9.4	56.8	53.8	613		21.6	> 100000	> 10000	> 100000	
CC(C)Oc1ccc(-c2nnc(-c3ccc4c(c3)C[C@](N)(CO)CC4)o2)cc1C(F)(F)F [Example 14, (S)-(2-amino-7-(5-(4-isopropoxy-3-(trifluoromethyl)phenyl)-1,3,4-oxadiazol-2-yl)-1,2,3,4-tetrahydronaphthalen-2-yl)methanol]								870					
CCCCCCCCCCCCC/C=C/[C@@H](O)[C@@H](N)COP(=O)(O)O [Example S1P, sphingosine-1-phosphate, reference compound]							26.3		25.2	190			
